# Assay results from paper PMC7573271, “Structural characterization of anti-CCL5 activity of the tick salivary protein evasin-4” (The Journal of Biological Chemistry, 2020).
# Where a chain is given by its changes, count along the chain named. In names and notes the source's numbering stands. Entries after “also recorded” stand apart in the source; their conditions may differ. Read-outs that look alike come from different tables or passages of the source.
# T1: human CCL5 (Homo sapiens, UniProt P13501)
# T1 sequence (P13501 24-91): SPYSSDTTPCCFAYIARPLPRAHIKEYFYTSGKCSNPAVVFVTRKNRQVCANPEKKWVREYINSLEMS
# B1: Evasin-1: 94–amino acid protein from the C8 subfamily, from Rhipicephalus sanguineus (protein, UniProt P0C8E7 21-114, looked up)
# Evasin-1: EDDEDYGDLGGCPFLVAENKTGYPTIVACKQDCNGTTETAPNGTRCFSIGDEGLRRMTANLPYDCPLGQCSNGDCIPKETYEVCYRRNWRDKKN
# B2: E66S CCL5: CCL5 mutant that mainly forms dimers at physiological pH (protein, UniProt P13501 24-91, looked up, variant E66S)
# C-C motif chemokine 5: T1 sequence (P13501 24-91) with E66S
# B3: E66A CCL5: CCL5 mutant with deficiency in oligomerization (ref 25) (protein, UniProt P13501 24-91, looked up, variant E66A)
# C-C motif chemokine 5: T1 sequence (P13501 24-91) with E66A
# B4: CCL5: chemokine CC-motif ligand 5, also known as RANTES (protein, UniProt P13501 24-91, looked up)
# C-C motif chemokine 5: T1 sequence (P13501 24-91)
# Columns and labels:
# human CCL5 = target: T1, human CCL5; assay: Fluorescence anisotropy titration of 5(6)-Fam-labeled peptides by CCL5; type: binding; settings: 100 nM 5(6)-Fam-labeled peptide, HEPES pH 7.4, 37 °C; for effect of CCL5 addition on fluorescence anisotropy / affinity in words: CCL5 up to 500 nM
# Description: To assess this hypothesis, two peptides taken from the Evasin-4 sequence were synthesized by Boc-based solid-phase peptide synthesis (Figs. S8 and S9). The first peptide, Ev4 Glu^14–Ala^23, comprises the Glu^14–Ala^23 residues of Evasin-4, whereas the second one, Ev4 Glu^14–Asn^31, includes the longer region Glu^14–Asn^31 (Fig. 4C). Cys^27 in the Ev4 Glu^14–Asn^31 was mutated to alanine to prevent oxidation and formation of intermolecular disulfide bonds. Affinity of obtained peptides to CCL5 was studied by fluorescence anisotropy using 100 nM of 5(6)-Fam–labeled peptides and human CCL5.
# Fluorescence polarization assays were carried out using FluoroMax 4 fluorimeter (Horiba) equipped with FM4-2000 polarizers in 3-ml cuvettes. 100 nM solution of 5(6)-Fam–labeled peptides in HEPES buffer pH 7.4 were titrated by a 30 μM stock solution of CCL5 at 37 °C. Fluorescent signal was measured using 495 and 520 nm as excitation and emission wavelengths. The final titration curve is a result of three or four independent measurements.
# [1] = tested on: CCL5-induced THP-1 cell migration; assay: THP-1 monocytic cell migration assay toward CCL5; type: cell-based, human; settings: CCL5 0.5 µg/ml
# Description: Human acute monocytic leukemia cell line (THP-1) monocytic cells were purchased from Leibniz-Institut DSMZ (ACC 16). The cells were cultured in RPMI 1640 GlutaMAX medium supplemented with 20 % fetal calf serum and 1 % penicillin/streptomycin (all Gibco ThermoFisher). The cells were cultured in a humidified atmosphere (5 % CO2, 95 % air, 37 °C) and routinely passed by splitting the cells (1:10) to fresh medium. The migration of monocytic cells toward chemoattractants was assessed in a 12-well chemotaxis chamber equipped with a 5-μm polycarbonate membrane (both Neuroprobe, Gaithersburg, MD, USA). Chemoattractants CCL5 (0.5 µg/ml) or CXCL4 (0.5 µg/ml) were preincubated with met–Evasin-4 (1 µg/ml) for 2 h at 37 °C subsequently added to the bottom well of the chemotaxis chamber. THP-1 monocytic cells (1 × 10^6/ml), suspended in RPMI 1640 GlutaMAX medium supplemented with 1 % fetal calf serum, were added in the upper wells and incubated for 90 min at 37 °C in a humidified atmosphere (5 % CO2, 95 % air). The nonmigrated cells were carefully removed, and the membrane was stained with Diff-Quick stain (Eberhard Lehmann GmbH, Berlin, Germany). Migrated cells were visualized by light microscopy, counted manually in five fields, and expressed as cells/mm^2.
# [2] = Solubility/precipitation observed in NMR and crystallization sample preparation
# Description: For NMR sample preparation, lyophilized proteins were dissolved in 25 mM phosphate buffer (pH 6.8–7.1) or 25 mM sodium acetate-d^3 buffer (pH 4.5) containing 0.1 mM EDTA, 0.2 mM sodium azide, 5% (v/v) D2O for deuterium lock, at final concentration of 50 μM for m–t-Evasin-4 and 82, 20, and 1 μM for E66S CCL5. The samples were buffer exchanged four or five times by ultracentrifugation using prewashed Amicon Ultra-3000 3-kDa (Millipore, USA) ultracentrifugation filters. Final NMR samples were prepared in 3- or 5-mm NMR tubes, containing traces of DSS for chemical shift calibration. All NMR spectra were recorded using a Bruker Avance III HD 700 MHz spectrometer, equipped with a cryogenically cooled TCI probe at 37 °C. To make the complex, equimolar amounts of unlabeled met–Evasin-4 or E66S CCL5 were titrated to their [^15N,^13C]-enriched complement samples. For met–Evasin-4 and the two complexes, the solution pH of the NMR sample was carefully adjusted to pH 7.1 to ensure stable, nonprecipitating solutions.
# E66S CCL5 = assay: NMR titration of 15N E66S CCL5 by Ev4 Glu14-Asn31; type: binding; settings: 25 mM acetate
# Description: In the case of E66S CCL5/Ev4 Glu^14–Asn^31 complex, 25 μM of ^15N E66S CCL5 in 25 mM acetate buffer, pH 4.5, was titrated by increasing concentrations of Ev4 Glu^14–Asn^31. For each concentration ^15N-^1H HSQC was recorded. Backbone resonance assignments were derived by following the shift of peak positions.
# CCL3 = settings: cited from earlier work
# Description: Disruption of the chemokine signaling system is one of the crucial parts of ticks' strategy to evade immune responses. To neutralize chemokines, ticks secrete small cysteine-rich chemokine-binding proteins in their saliva with no homologues in mammals, termed Evasins ([6]). Evasins can be divided into two structurally unrelated C6 or C8 subfamilies embodying six and eight cysteines, respectively ([6]). […] In fact, the N terminus of C8-Evasins seems to play a crucial role in chemokine binding. For instance, replacement of the N terminus of Evasin-1 by that of P672, another C8-Evasin with different chemokine selectivity, produced a chim ...
# CCL4 = settings: cited from earlier work
# Description: (§1) Disruption of the chemokine signaling system is one of the crucial parts of ticks' strategy to evade immune responses. To neutralize chemokines, ticks secrete small cysteine-rich chemokine-binding proteins in their saliva with no homologues in mammals, termed Evasins ([6]). Evasins can be divided into two structurally unrelated C6 or C8 subfamilies embodying six and eight cysteines, respectively ([6]). […] Although several hundred of putative C6- and C8-Evasins have been identified in tic ...
# CCL18 = settings: cited from earlier work
# Description: as §1
# [3] = NMR analysis of E66S CCL5 monomer/dimer equilibria; type: physicochemical; settings: pH 4.5, 37 °C
# Description: To study the structural determinants of E66S CCL5 involved in Evasin-4 binding, NMR spectra were recorded for the [^15N,^13C]E66S CCL5–Evasin-4 complex. Initial ^15N-^1H HSQC spectra of [^15N,^13C]E66S CCL5 were recorded at pH 4.5 and 37 °C at concentrations of 1 and 20 μM. […] This observation goes in line with the obtained crystal structure because the E66S CCL5 dimer interface is formed by interactions of the N terminus with the 30s loop and β3-strand.
# [4] = physiological pH; cited from earlier work
# Description: (§2) CCL5 can oligomerize, forming dimers and oligomers of a higher order ([16]), which would complicate analysis of Evasin-4 binding. […] To address this question, surface plasmon resonance (SPR) biosensor analysis was performed with biotinylated Eva ...
# Evasin-4 = settings: cited from earlier work
# Description: as §2
molecule,measurement,setting,value
"H-EEEDDYTAYA-NH2 [Ev4 Glu^14–Ala^23, peptide comprising the Glu14–Ala23 residues of Evasin-4]",effect of CCL5 addition on fluorescence anisotropy / affinity in words,human CCL5,no effect even at concentration of 500 nM
same,affinity to CCL5,human CCL5; fluorescence anisotropy,no affinity to CCL5
"H-EEEDDYTAYAPLTAYFTN-NH2 [Ev4 Glu^14–Asn^31, H2N-EEEDDYTAYAPLTAYFTN-CONH2]",required inhibitory concentrations compared with full-length Evasin-4,"[1]; CCL5-induced THP-1 migration, compared with full-length protein",the required concentrations were higher compared with the full-length protein
same,concentration at which full inhibition of CCL5-induced THP-1 migration was reached,"[1]; full inhibition only at this concentration, 1 × 10^6 cells/ml, 90 min, 37 °C",10 µM
same,inhibition of CCL5-induced THP-1 migration,"[1]; increasing concentrations of Ev4 Glu14-Asn31, 1 × 10^6 cells/ml, 90 min, 37 °C",dose-dependent inhibition of CCL5-induced THP-1 cell migration; also recorded: effectively inhibits CCL5-induced monocyte migration; also recorded: blocks CCL5-induced monocyte migration
same,solubility of peptide,"[2]; low pH values, negatively charged residues",poorly soluble at low pH values
same,solubility of complex with E66S CCL5,[2]; peptide/E66S CCL5 complex compared with E66S CCL5-Evasin-4 complex,more soluble compared with the E66S CCL5–Evasin-4 complex
same,effect of CCL5 addition on fluorescence anisotropy / affinity in words,human CCL5,dose-dependent increase of fluorescence anisotropy
same,affinity to CCL5,human CCL5; fluorescence anisotropy,nanomolar affinity to CCL5; also recorded: binds CCL5 with nanomolar affinity
same,Kd,"human CCL5; fluorescence anisotropy, titrated by 30 μM stock of CCL5, ex 495/em 520 nm, three or four independent measurements, read-out: apparent KD",69 ± 12 nM
same,effect of peptide titration on E66S CCL5 signals,"E66S CCL5; 25 μM [15N]E66S CCL5, increasing concentrations of peptide, pH 4.5",binds the CCL5 monomer; also recorded: gradual shift of signals of monomeric E66S CCL5 and decrease of signal intensity for the dimeric form; also recorded: only CCL5 monomer signals are affected upon binding
same,most perturbed residues of E66S CCL5 by peptide binding,"E66S CCL5; 25 μM [15N]E66S CCL5 monomer form, before and after 500 μM Ev4 Glu14-Asn31, pH 4.5, 37 °C",N-loop (Phe^12–Arg^21 and His^23) and in the β3-strand (Gln^48 and Cys^50)
B1,affinity in words,CCL3,high-affinity binder
same,affinity in words,CCL4,high-affinity binder
same,affinity in words,CCL18,high-affinity binder
B2,oligomeric form,"[3]; 1 μM E66S CCL5, 15N-1H HSQC",monomeric form
same,oligomeric form,"[3]; 20 μM E66S CCL5, 15N-1H HSQC, two sets of signals",monomeric and dimeric form
same,oligomeric form,[4],mainly forms dimers
B3,oligomerization and Evasin-4 inhibition potency,Evasin-4,deficiency in oligomerization without disturbing Evasin-4 inhibition potency
B4,induction of THP-1 migration,"[1]; compared with control in the absence of chemoattractants, 90 min, 37 °C",induced significant migration of THP-1 cells
